Laboratory results as given in patent US10117845B2, “Retinal derivatives and methods for the use thereof for the treatment of visual disorders” (University of Washington, priority 2004, dated 2018).

Columns and labels:
[1] = test system: LRAT−/− mice (LCA mouse model); assay: Retinoids in eyes of gavaged LRAT−/− mice, analyzed by HPLC (Example 1); format: in vivo
Method: […]. HPLC chromatogram showing retinoid elution in treated and control mice eye and liver tissue. FIG. 1A. Eyes from dark adapted LRAT−/− mouse. FIG. 1B. Eyes from dark-adapted LRAT−/− mouse gavaged with 5 mg all-trans-retinyl palmitate 2 days prior. FIG. 1C. Eyes from dark-adapted LRAT−/− mouse gavaged with 5 mg all-trans-retinyl acetate 2 days prior. FIG. 1D. Eyes from dark-adapted LRAT−/− mouse gavaged with 6.5 mg 9-cis-retinyl acetate 3 days prior. FIG. 1E. Liver tissue from dark adapted LRAT−/− mouse. FIG. 1F. Liver tissue from dark-adapted LRAT−/− mouse gavaged with 5 mg all-trans-retinyl palmitate 2 days prior. FIG. 1G. Liver tissue from dark-adapted LRAT−/− mouse gavaged with 5 mg all-trans-retinyl acetate 2 days prior. FIG. 1H. Liver tissue from dark-adapted LRAT−/− mouse gavaged with 6.5 mg 9-cis-retinyl acetate 3 days prior.
9-cis-retinyl ester restores visual pigment in an LCA mouse model. LRAT−/− mice were gavaged with all-trans-retinyl palmitate, all-trans-retinyl acetate or 9-cis-retinyl acetate as indicated in the legend to FIG. 1A-1H. Following treatment, retinoids were extracted from the eye and liver, and analyzed by HPLC. […] 9-cis-retinyl ester restores visual pigment in approximately 5 hr (FIG. 2), while excess of retinoid is removed and metabolized (as illustrated for 9-cis-retinol).

Lrat−/− mice [2] = assay: 9-cis-RAL oxime levels in eyes of Lrat−/− mice after single or multiple oral doses (Example 3); format: in vivo, mouse
Method: Levels of 9-cis-RAL oximes (measured as syn- and anti-9-cis-retinyl aldehyde) in the eyes of Lrat−/− mice after a single dose or multiple doses of 9-cis-retinyl-acetate (9-cis-R-Ac). Doses of 9-cis-R-Ac were administered to Lrat−/− mice by oral gavage in vegetable oil (100% canola oil) in a volume of 500 ill (2.5 mg/ml). The mice weighed about 30-50 g. After 3 days, 9-cis-RAL oximes levels were determined by HPLC. Briefly, all experimental procedures related to extraction, derivatization, and separation of retinoids from dissected mouse eyes were carried out as described previously. See Van Hooser et al., J. Biol. Chem. 277:19173-182 (2002); Van Hooser et al., Proc. Natl. Acad. Sci. USA 97:8623-28 (2000); Maeda et al., J. Neurochem. 85:944-56 (2003). All reactions involving retinoids were carried out under dim red light.
Referring to FIG. 5a, the level of 9-cis-RAL in Lrat−/− in mouse eyes after a varying dose of 9-cis-R-Ac is shown. Peaks were identified by retention time and UV spectra and compared to standards. The spike around 19 min resulted from changes in the solvent composition. Retinoid analysis was performed on an HP1100 HPLC equipped with a diode array detector and HP Chemstation (A.07.01) software, allowing identification of retinoid isomers according to their specific retention time and absorption maxima. […]

Lrat−/− mice [3] = assay: Bioavailability comparison of oral 9-cis-retinaldehyde and 9-cis-retinyl acetate, by chromophore levels in LRAT−/− mice (Example 5); format: in vivo, mouse; conditions: low (10 μmoles) and high (15 μmoles) doses, effect more pronounced at low dose, FIG. 7
Method: A comparison of the bioavailability of orally delivered 9-cis-retinaldehyde and 9-cis-retinyl acetate in an LRAT−/− model. 9-cis-retinaldehyde and 9-cis-retinyl acetate were administered at low (10 μmoles) and high (15 μmoles) doses to LRAT−/− mice. Chromophore levels (as 9-cis-retinal oximes) were determined as described previously. See Van Hooser et at, J. Biol. Chem. 277:19173-182 (2002); Van Hooser et al., Proc. Natl. Acad. Sci. USA 97:8623-28 (2000); Maeda et al., J. Neurochem. 85:944-56 (2003). All reactions involving retinoids were carried out under dim red light.

Lrat−/− mice [4] = assay: Chromophore levels in eyes of Lrat−/− mice after all-trans-retinoid isoforms or 9-cis-retinyl succinate (Example 4); format: in vivo, mouse; conditions: 5 mg by oral gavage in canola oil (40 mg/ml), measured after 3 days; FIG. 6
Method: Levels of chromophore (opsin/retinal complexes) were measured in the eyes of mice after dosing with all-trans-retinoid isoforms or 9-cis-retinyl succinate. All-trans-retinyl-palmitate, all-trans-retinyl acetate, all-trans-retinal (vitamin A aldehyde), all-trans-retinol (vitamin A), all-trans-retinyl succinate and 9-cis-retinyl succinate were administered to Lrat−/− mice by oral gavage. Five milligrams of the retinoid isoforms or 9-cis-retinyl succinate were administered in 100% canola oil at a concentration of 40 mg/ml. After 3 days, chromophore levels (as all-trans-retinal oximes or 9-cis-retinal oximes) were determined as described previously. See Van Hooser et al., J. Biol. Chem. 277:19173-182 (2002); Van Hooser et al, Proc. Natl. Acad. Sci. USA 97:8623-28 (2000); Maeda et al., J. Neurochem. 85:944-56 (2003). All reactions involving retinoids were carried out under dim red light.

For `CC(=O)OC/C=C(C)/C=C/C=C(C)\C=C\C1=C(C)CCCC1(C)C` [9-cis-retinyl acetate], the “presence of syn-9-cis-retinal oxime in eyes (formation of the chromophore)” value ([1]; dark-adapted LRAT−/− mouse gavaged with 6.5 mg 3 days prior, FIG. 1D) was “restored the presence of syn-9-cis-retinal oxime”, the “time in which visual pigment is restored” value ([1]; eye 9-cis-retinal oximes time course, FIG. 2) was “approximately 5 hr” and the “maximal level of isorhodopsin (as 9-cis-retinal oximes)” value (Lrat−/− mice [2]; Lrat−/− mouse eyes after 10 gavages, FIG. 5b) was “comparable to the level of rhodopsin in wildtype (WT) mice”. For the same compound, the “dose at which levels of 9-cis-RAL per eye leveled off” value (Lrat−/− mice [2]; single varying dose by oral gavage in canola oil, measured after 3 days, FIG. 5a) was 4 to 6 µmol and the “restoration of chromophore levels (as 9-cis-retinal oximes), compared with 9-cis-retinaldehyde” value (Lrat−/− mice [3]) was “more efficiently restores chromophore levels than 9-cis-retinaldehyde”.

`CC1=C(/C=C/C(C)=C\C=C\C(C)=C\COC(=O)CCC(=O)O)C(C)(C)CCC1` [9-cis-retinyl succinate] was tested, and the “restoration of chromophore levels (as all-trans-retinal oximes or 9-cis-retinal oximes)” value (Lrat−/− mice [4]) was “restored chromophore levels”.
